“Also recorded” adds a separate entry of the source. Residues, ends and D or L forms follow the SMILES beside them.
Tested on: patients with at least one eye with dry AMD and GA
Assay: Phase 2 randomized, placebo-controlled, double-masked trial of elamipretide (NCT03891875)
Format: in vivo, human
Experimental: Study design. In this Phase 2, randomized, placebo-controlled, double-masked, multicenter, safety and efficacy trial (ClinicalTrials.gov identifier NCT03891875), patients with at least one eye with dry AMD and GA were included. Visit 1 (screening visit) was performed no more than 14 days before the baseline visit (visit 2, day 1) (FIG. 1). Eligible patients returned for the baseline visit, at which time they were randomized (interactive response system) in a 2:1 ratio to receive either elamipretide 40 mg or placebo administered with a pen injector delivery system as a single daily self-administered subcutaneous injection. This dose was chosen based on the systemic exposure and safety profiles of elamipretide in an earlier trial (Allingham 2022; Mettu 2022). Patients were treated for 48 weeks, with assessments at day 1 and weeks 4, 8, 12, 24, 36, and 48 (visits 2 to 8) plus a final safety follow-up visit 4 weeks after the last day of study treatment (week 52; visit 9). Patient diaries and vial counts were used and reviewed to verify compliance.
Patients—Key inclusion criteria. The original protocol specified that adults≥55 years of age with one eye with dry AMD and GA were eligible for study entry. However, a subsequent amendment to the protocol limited inclusion to patients with noncentral GA. Noncentral GA and area was determined primarily by fundus autofluorescence (FAF) and all noncentral GA lesions were required to be ≥150 μm from foveal center with preserved outer retinal structural details, as confirmed by the central reading center (BIRC, Boston MA). Noncentral GA was required to be ≥0.05 mm^2 and ≤10.16 mm^2 in size, and reside completely within the FAF 30- or 35-degree image. […] The fellow eye was allowed to have AMD with or without GA, MNV, central GA, or no pathology.
Patients—Key exclusion criteria. Key exclusion criteria for study eye included absence of observable hyper-FAF at the margins of the GA (only for lesions 0.25 mm^2), atrophic retinal disease of causality other than AMD including myopia-related maculopathy and monogenetic macular dystrophies including pattern dystrophy and adult-onset Stargardt disease. Presence or diagnosis of exudative AMD or MNV, presence of retinal vein occlusion or vitreous hemorrhage, history of retinal detachment or macular hole, presence of an epiretinal membrane that causes distortion of the retinal contour, vitreomacular traction, or advanced glaucoma in the study eye were also not allowed.
Study objectives and endpoints. The primary efficacy endpoints were changes from baseline in LL BCVA and in square root converted GA area as measured by OCT. Secondary efficacy endpoints included changes in ellipsoid zone integrity, categorical changes from baseline in LL-BCVA, changes from baseline in LL reading acuity (LLRA), BCVA, and GA area as measured by FAF. Additional predefined endpoints included change in center 1-mm and 2-mm mean EZ-RPE thickness, National Eye Institute Visual Function Questionnaire (VFQ-39) score, RA at standard light, visual function by the Low-Luminance Questionnaire (LLQ). For efficacy endpoints, the unit of analysis was study eye; in cases where both eyes are eligible for analysis, the study eye was the eye with the worse LL BCVA as determined at baseline (right eye was the study eye for equal LL BCVA). Ellipsoid zone integrity was measured as previously described on OCT utilizing a machine learning enhanced multi-layer segmentation platform that provided panmacular assessment of the EZ and RPE location (Sirici, et al., Ophthamol Surg Lasers Imaging Retina, 2022; Itoh, et al, Br J Ophthamol, 2016).
The primary safety objective was to evaluate the safety/tolerability of elamipretide. […]

[1] = LS mean change from baseline to week 48, 40 mg SC once daily

Q: How did the “LS mean change from baseline to week 48 for macular percentage of tEZa (EZ-RPE thickness of 0 μm)” value (40 mg SC once daily, OCT, mITT, placebo 6.47% [0.737], P=0.0034) turn out when `Cc1cc(O)cc(C)c1C[C@H](NC(=O)[C@H](N)CCCNC(=N)N)C(=O)N[C@@H](CCCCN)C(=O)N[C@@H](Cc1ccccc1)C(N)=O` [elamipretide, H-D-Arg-2′,6′Dmt-Lys-Phe-NH2] (HELM PEPTIDE1{[dR].[Cc1cc(O)cc(C)c1C[C@H](N[*:1])C(=O)[*:2]].K.F.[am]}$$$$V2.0) was run?
A: 3.69%

Q: And the “LS mean change from baseline to week 48 for pEZa (EZ-RPE thickness ≤20 μm)” value (40 mg SC once daily, OCT, mITT, placebo 7.68% [0.969], P=0.0040)?
A: 4.10%

Q: And the “square root of GA area progression as measured by OCT” value (40 mg SC once daily, week 48, mITT, placebo 0.275, P=0.34)?
A: 0.312 mm

Q: What about the “patients experiencing a ≥2-line gain (≥10 letter) in LL BCVA” value (40 mg SC once daily, week 48, mITT, placebo 2.1%, P=0.0404) of the same compound?
A: 14.6%

Q: And the “percentage of patients at week 48 experiencing a >1-line gain” value (40 mg SC once daily, in words, versus placebo)?
A: higher compared to placebo

Q: What about the “progression of GA area relative to the baseline boundary of total EZ attenuation” value (48-week trial, in words) of the same compound?
A: did not progress to the baseline boundary of total EZ attenuation

Q: What about the “progression of partial EZ attenuation versus placebo” value (48 weeks, mITT, in words) of the same compound?
A: reduces partial EZ attenuation

Q: And the “progression of total EZ attenuation versus placebo” value (48 weeks, mITT, in words)?
A: significantly less progression of tEZa; also recorded: reduces total EZ attenuation

Q: And the “growth of partial EZ attenuation area during the trial” value (48 weeks, placebo arm 34%)?
A: 15%

Q: And the “growth of total EZ attenuation area (mm^2) during the trial” value (48 weeks, placebo arm 48%)?
A: 26%

Q: What about the “reduction in progression of partial EZ attenuation relative to placebo” value [1] of the same compound?
A: 47%

Q: And the “reduction in progression of total EZ attenuation relative to placebo” value [1]?
A: 43%

Q: And the “least squares (LS) mean change from baseline in LL BCVA” value (elamipretide 40 mg SC once daily, week 48, mITT, study eye, placebo −4.4, P=0.49)?
A: −3.0 letters

Q: And the “Early discontinuation, reason: Withdrawal by subject” value (elamipretide arm n=117, placebo 3 (5.1))?
A: 20 (17.1) n (%)

Q: And the “Early discontinuation, reason: Adverse event” value (elamipretide arm n=117, placebo 4 (6.8))?
A: 10 (8.5) n (%)

Q: What about the “Subjects leaving study early” value (elamipretide arm n=117, placebo 8 (13.6)) of the same compound?
A: 34 (29.1) n (%)

Q: What about the “GA zonal lesion area, change from baseline at Week 48” value (mITT n=76, baseline 2.63, placebo 0.99) of the same compound?
A: 1.15 mm^2

Q: And the “patients who discontinued the study early” value (of 117 randomized to elamipretide [29%], placebo n=8)?
A: 34 patients

Q: What about the “early discontinuation due to adverse events” value (of 117 randomized to elamipretide, placebo 4) of the same compound?
A: 10 patients

Q: What about the “early discontinuation due to withdrawal by subject” value (of 117 randomized to elamipretide, placebo n=3) of the same compound?
A: 20 patients

Q: What about the “tEZa zonal lesion area, change from baseline at Week 48” value (post hoc, percent attenuation x total macular area on OCT, mITT n=72, baseline 5.39, placebo 2.23, p = 0.04) of the same compound?
A: 1.39 mm^2

Q: What about the “pEZa zonal lesion area, change from baseline at Week 48” value (post hoc, percent attenuation x total macular area on OCT, mITT n=72, baseline 9.03, placebo 2.65, p = 0.01) of the same compound?
A: 1.34 mm^2

Q: And the “progression of the EZ-GA gap” value (post-hoc, total randomized population, baseline, 24 and 48 weeks, in words, versus placebo)?
A: slower rate of progression; also recorded: reduced progression of EZ-GA gap

Q: What about the “treatment effect in LL BCVA versus placebo, subgroup with mean center 1 mm EZ-RPE thickness ≥10-micron” value (post-hoc, week 48, in words) of the same compound?
A: trended towards a treatment effect

Q: What about the “categorical improvement in LL BCVA (≥2-line gain) versus placebo” value (week 48, mITT, in words) of the same compound?
A: significantly more patients experiencing a ≥2-line gain; also recorded: categorical improvement in LL BCVA
